Reference: PubChem BioAssay AID2060614 (Molecular Pharmacology Branch, DTP, NCI, 2025)

Tested on: 598228-144-R-J1-PDC complex spheroids, viability
Assay: Anticancer human tumor 598228-144-R-J1-PDC patient-derived serous endometrial adenocarcinoma cell line growth inhibition [CLK]
Settings: for IC50: curve of first compound; for viability, T/C: stronger effect = lower value
Method in brief: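 Multi-cell-type spheroids combined patient-derived tumor cells with HUVEC endothelial cells and human mesenchymal stem cells. Paired agents were dosed in half-log steps down from about clinical Cmax, or from 10 microM where Cmax was unknown.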
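Also: spheroids exposed to compounds for seven days before readout.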
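For viability, T/C in this document: 100% = DMSO vehicle control wells.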

CC1COCCN1c1cc(C2(S(C)(=N)=O)CC2)nc(-c2ccnc3[nH]ccc23)n1 (centres undefined) + CNC(=O)c1ccc(Nc2nc(OC3CCCC3)c3c(-c4ccc5nc(C)oc5c4)c[nH]c3n2)c(OC)c1
IC50 (second compound 0.0316 µM): 9480 nM | IC50 (second compound 0.1 µM): > 10000 nM | IC50 (second compound 0.316 µM): > 10000 nM | IC50 (second compound 1 µM): 6790 nM | IC50 (second compound 3.16 µM): 3300 nM | IC50 (second compound 10 µM): 2530 nM | viability, T/C (second compound 0.0316 µM, first compound 0.0316 µM): 101% | viability, T/C (second compound 0.0316 µM, first compound 0.1 µM): 107% | viability, T/C (second compound 0.0316 µM, first compound 0.316 µM): 100% | viability, T/C (second compound 0.0316 µM, first compound 1 µM): 97.3% | viability, T/C (second compound 0.0316 µM, first compound 3.16 µM): 73.3% | viability, T/C (second compound 0.0316 µM, first compound 10 µM): 48.9% | viability, T/C (second compound 0.1 µM, first compound 0.0316 µM): 105% | viability, T/C (second compound 0.1 µM, first compound 0.1 µM): 107% | viability, T/C (second compound 0.1 µM, first compound 0.316 µM): 115% | viability, T/C (second compound 0.1 µM, first compound 1 µM): 104% | viability, T/C (second compound 0.1 µM, first compound 3.16 µM): 68.5% | viability, T/C (second compound 0.1 µM, first compound 10 µM): 57.5% | viability, T/C (second compound 0.316 µM, first compound 0.0316 µM): 100% | viability, T/C (second compound 0.316 µM, first compound 0.1 µM): 91.3% | viability, T/C (second compound 0.316 µM, first compound 0.316 µM): 112% | viability, T/C (second compound 0.316 µM, first compound 1 µM): 89% | viability, T/C (second compound 0.316 µM, first compound 3.16 µM): 76.2% | viability, T/C (second compound 0.316 µM, first compound 10 µM): 59.7% | viability, T/C (second compound 1 µM, first compound 0.0316 µM): 110% | viability, T/C (second compound 1 µM, first compound 0.1 µM): 103% | viability, T/C (second compound 1 µM, first compound 0.316 µM): 90.7% | viability, T/C (second compound 1 µM, first compound 1 µM): 78.7% | viability, T/C (second compound 1 µM, first compound 3.16 µM): 69.1% | viability, T/C (second compound 1 µM, first compound 10 µM): 41.1% | viability, T/C (second compound 3.16 µM, first compound 0.0316 µM): 89.3% | viability, T/C (second compound 3.16 µM, first compound 0.1 µM): 90.9% | viability, T/C (second compound 3.16 µM, first compound 0.316 µM): 80.4% | viability, T/C (second compound 3.16 µM, first compound 1 µM): 72.8% | viability, T/C (second compound 3.16 µM, first compound 3.16 µM): 50.6% | viability, T/C (second compound 3.16 µM, first compound 10 µM): 24.6% | viability, T/C (second compound 10 µM, first compound 0.0316 µM): 79.6% | viability, T/C (second compound 10 µM, first compound 0.1 µM): 77.5% | viability, T/C (second compound 10 µM, first compound 0.316 µM): 85.6% | viability, T/C (second compound 10 µM, first compound 1 µM): 64.6% | viability, T/C (second compound 10 µM, first compound 3.16 µM): 46.9% | viability, T/C (second compound 10 µM, first compound 10 µM): 20.6%

NC(=O)C(=Cn1cnc(-c2cc(C(F)(F)F)cc(C(F)(F)F)c2)n1)c1cncnc1 + CNC(=O)c1ccc(Nc2nc(OC3CCCC3)c3c(-c4ccc5nc(C)oc5c4)c[nH]c3n2)c(OC)c1
IC50 (second compound 0.0316 µM): 362 nM | IC50 (second compound 0.1 µM): 525 nM | IC50 (second compound 0.316 µM): 644 nM | IC50 (second compound 1 µM): 467 nM | IC50 (second compound 3.16 µM): 301 nM | IC50 (second compound 10 µM): 160 nM | viability, T/C (second compound 0.0316 µM, first compound 0.00949 µM): 110% | viability, T/C (second compound 0.0316 µM, first compound 0.03 µM): 97.5% | viability, T/C (second compound 0.0316 µM, first compound 0.0949 µM): 93.9% | viability, T/C (second compound 0.0316 µM, first compound 0.3 µM): 53.3% | viability, T/C (second compound 0.0316 µM, first compound 0.949 µM): 30.1% | viability, T/C (second compound 0.0316 µM, first compound 3 µM): 25.7% | viability, T/C (second compound 0.1 µM, first compound 0.00949 µM): 101% | viability, T/C (second compound 0.1 µM, first compound 0.03 µM): 99.8% | viability, T/C (second compound 0.1 µM, first compound 0.0949 µM): 97.9% | viability, T/C (second compound 0.1 µM, first compound 0.3 µM): 63.8% | viability, T/C (second compound 0.1 µM, first compound 0.949 µM): 36.4% | viability, T/C (second compound 0.1 µM, first compound 3 µM): 28.7% | viability, T/C (second compound 0.316 µM, first compound 0.00949 µM): 88.1% | viability, T/C (second compound 0.316 µM, first compound 0.03 µM): 95.9% | viability, T/C (second compound 0.316 µM, first compound 0.0949 µM): 82.3% | viability, T/C (second compound 0.316 µM, first compound 0.3 µM): 64% | viability, T/C (second compound 0.316 µM, first compound 0.949 µM): 43.5% | viability, T/C (second compound 0.316 µM, first compound 3 µM): 18.2% | viability, T/C (second compound 1 µM, first compound 0.00949 µM): 97.5% | viability, T/C (second compound 1 µM, first compound 0.03 µM): 97.3% | viability, T/C (second compound 1 µM, first compound 0.0949 µM): 85% | viability, T/C (second compound 1 µM, first compound 0.3 µM): 55.4% | viability, T/C (second compound 1 µM, first compound 0.949 µM): 37.1% | viability, T/C (second compound 1 µM, first compound 3 µM): 10.4% | viability, T/C (second compound 3.16 µM, first compound 0.00949 µM): 96.8% | viability, T/C (second compound 3.16 µM, first compound 0.03 µM): 73.6% | viability, T/C (second compound 3.16 µM, first compound 0.0949 µM): 68.2% | viability, T/C (second compound 3.16 µM, first compound 0.3 µM): 54.3% | viability, T/C (second compound 3.16 µM, first compound 0.949 µM): 30% | viability, T/C (second compound 3.16 µM, first compound 3 µM): 10.9% | viability, T/C (second compound 10 µM, first compound 0.00949 µM): 88.1% | viability, T/C (second compound 10 µM, first compound 0.03 µM): 72.3% | viability, T/C (second compound 10 µM, first compound 0.0949 µM): 58.7% | viability, T/C (second compound 10 µM, first compound 0.3 µM): 42% | viability, T/C (second compound 10 µM, first compound 0.949 µM): 19.6% | viability, T/C (second compound 10 µM, first compound 3 µM): 4.93%
